The results in this text go back to US10004701B2, “Methods and compositions for treating infection” (UNIVERSITY OF ROCHESTER, priority 2012, dated 2018).

Common to all, as to experiment: AK assay 384-well format, Prestwick library screening
Assay [1] has as its system E. faecium. It is filed as cell-based, Enterococcus faecium. The note with it: 50 μM final drug concentration; for fold induction at 50 µM: Enterococcus faecium, 3 h.
Assay [2] has as its system S. aureus strain USA300-0114. It is filed as cell-based, Staphylococcus aureus. The following applies: 50 μM final drug concentration; for fold induction at 50 µM: Staphylococcus aureus, USA300, 3 h.
In assay [3] the test system is K. pneumoniae. The assay is classed as cell-based, Klebsiella pneumoniae. The note with it: 50 μM final drug concentration; for fold induction at 50 µM: Klebsiella pneumoniae, 3 h.
Assay [4] has as its system A. baumannii strain 98-37-09. It is filed as cell-based, Acinetobacter baumannii. The note with it: 50 μM final drug concentration; for fold induction at 50 µM: Acinetobacter baumannii, 983709, 3 h.
In assay [5] the test system is P. aeruginosa. It is filed as cell-based, Pseudomonas aeruginosa. The note with it: 50 μM final drug concentration; for fold induction at 50 µM: Pseudomonas aeruginosa, 3 h.
The subject of assay [6] is E. cloacae. The assay is classed as cell-based, Enterobacter cloacae. The following applies: 50 μM final drug concentration; for fold induction at 50 µM: Enterobacter cloacae, 3 h.
Assay [7] relates to E. coli. It is filed as cell-based, Escherichia coli. The note with it: 50 μM final drug concentration; for fold induction at 50 µM: Escherichia coli, 3 h.

Counter-ions that a name gives are not always drawn. Like-named read-outs stand apart in the source and are kept apart here.

`CCC1(c2ccccc2)NC(=O)N(C)C1=O` (stereo not shown) [Mephenytoin]: the fold induction at 50 µM in assay [1] (planktonic E. faecium, positive cutoff 3-fold increase, read-out: AK-based Prestwick library screening result, E. faecium (fold increase in extracellular AK activity)) is 1; in assay [2] (planktonic S. aureus, positive cutoff 3-fold increase, read-out: AK-based Prestwick library screening result, S. aureus (fold increase in extracellular AK activity)), 1.1; in assay [3] (planktonic K. pneumoniae, positive cutoff 3-fold increase, read-out: AK-based Prestwick library screening result, K. pneumoniae (fold increase in extracellular AK activity)), 1; in assay [4] (planktonic A. baumannii, positive cutoff 3-fold increase, read-out: AK-based Prestwick library screening result, A. baumannii (fold increase in extracellular AK activity)) it was 1.3; in assay [5] (planktonic P. aeruginosa, positive cutoff 3-fold increase, read-out: AK-based Prestwick library screening result, P. aeruginosa (fold increase in extracellular AK activity)), 1; in assay [6] (planktonic E. cloacae, positive cutoff 3-fold increase, read-out: AK-based Prestwick library screening result, E. cloacae (fold increase in extracellular AK activity)), 1.3. The fold induction at 50 µM in assay [7] (planktonic E. coli, positive cutoff 3-fold increase, read-out: AK-based Prestwick library screening result, E. coli (fold increase in extracellular AK activity)) stood at 1.1.

`CC[N+]1(C)CCCC(OC(=O)C(O)(c2ccccc2)c2ccccc2)C1` (stereo not shown) [Pipenzolate bromide]: the fold induction at 50 µM is 0.9 in assay [1] (planktonic, cutoff for positive-scoring molecules 3-fold increase, read-out: AK-based Prestwick Library Screening Results, E. faecium (fold increase in extracellular AK activity)); 0.8 in assay [2] (planktonic, cutoff for positive-scoring molecules 3-fold increase, read-out: AK-based Prestwick Library Screening Results, S. aureus (fold increase in extracellular AK activity)); 0.7 in assay [3] (planktonic, cutoff for positive-scoring molecules 3-fold increase, read-out: AK-based Prestwick Library Screening Results, K. pneumoniae (fold increase in extracellular AK activity)); 0.7 in assay [4] (planktonic, cutoff for positive-scoring molecules 3-fold increase, read-out: AK-based Prestwick Library Screening Results, A. baumannii (fold increase in extracellular AK activity)); 0.8 in assay [5] (planktonic, cutoff for positive-scoring molecules 3-fold increase, read-out: AK-based Prestwick Library Screening Results, P. aeruginosa (fold increase in extracellular AK activity)); 0.9 in assay [6] (planktonic, cutoff for positive-scoring molecules 3-fold increase, read-out: AK-based Prestwick Library Screening Results, E. cloacae (fold increase in extracellular AK activity)). For the same compound, in assay [7] (planktonic, cutoff for positive-scoring molecules 3-fold increase, read-out: AK-based Prestwick Library Screening Results, E. coli (fold increase in extracellular AK activity)), the fold induction at 50 µM is 0.9.

Take `CCN1C[C@]2(COC)CC[C@H](O)[C@]34C1[C@@](O)([C@@H](OC)[C@H]23)[C@@]1(O)C[C@H](OC)[C@H]2C[C@@H]4[C@@H]1[C@H]2OC` [Delsoline]: the fold induction at 50 µM in assay [1] (planktonic, […], read-out: AK-based Prestwick Library Screening Results, E. faecium (fold increase in extracellular AK activity)) turned out to be 0.9; in assay [2] (planktonic, […], read-out: AK-based Prestwick Library Screening Results, S. aureus (fold increase in extracellular AK activity)), 0.8; in assay [3] (planktonic, […], read-out: AK-based Prestwick Library Screening Results, K. pneumoniae (fold increase in extracellular AK activity)) it was 0.7; in assay [4] (planktonic, […], read-out: AK-based Prestwick Library Screening Results, A. baumannii (fold increase in extracellular AK activity)), 0.9; in assay [5] (planktonic, […], read-out: AK-based Prestwick Library Screening Results, P. aeruginosa (fold increase in extracellular AK activity)), 0.8; in assay [6] (planktonic, […], read-out: AK-based Prestwick Library Screening Results, E. cloacae (fold increase in extracellular AK activity)) it was 1.3. Moreover, in assay [7] (planktonic, […], read-out: AK-based Prestwick Library Screening Results, E. coli (fold increase in extracellular AK activity)), the fold induction at 50 µM is 0.9.

`CCN(CC)CCOC(=O)C(Cc1cccc2ccccc12)CC1CCCO1` (stereo not shown) [Nafronyl oxalate]: the fold induction at 50 µM in assay [1] (planktonic, cutoff for positive 3-fold increase, read-out: AK-based Prestwick Library Screening Results, E. faecium (fold increase in extracellular AK activity)) came out at 1; in assay [2] (planktonic, cutoff for positive 3-fold increase, read-out: AK-based Prestwick Library Screening Results, S. aureus (fold increase in extracellular AK activity)), 0.9; in assay [3] (planktonic, cutoff for positive 3-fold increase, read-out: AK-based Prestwick Library Screening Results, K. pneumoniae (fold increase in extracellular AK activity)), 1; in assay [4] (planktonic, cutoff for positive 3-fold increase, read-out: AK-based Prestwick Library Screening Results, A. baumannii (fold increase in extracellular AK activity)), 1; in assay [5] (planktonic, cutoff for positive 3-fold increase, read-out: AK-based Prestwick Library Screening Results, P. aeruginosa (fold increase in extracellular AK activity)) it was 1.1; in assay [6] (planktonic, cutoff for positive 3-fold increase, read-out: AK-based Prestwick Library Screening Results, E. cloacae (fold increase in extracellular AK activity)), 1.4. Besides, the fold induction at 50 µM in assay [7] (planktonic, cutoff for positive 3-fold increase, read-out: AK-based Prestwick Library Screening Results, E. coli (fold increase in extracellular AK activity)) worked out at 1.

In the case of `O=C(N[C@H](CO)[C@H](O)c1ccc([N+](=O)[O-])cc1)C(Cl)Cl` [Chloramphenicol], the fold induction at 50 µM is 0.8 in assay [1] (384-well format, cutoff for positive-scoring molecules 3-fold increase, read-out: AK-based Prestwick Library Screening Results, E. faecium (increase in extracellular AK activity)); 9.7 in assay [2] (384-well format, cutoff for positive-scoring molecules 3-fold increase, read-out: AK-based Prestwick Library Screening Results, S. aureus (increase in extracellular AK activity)); 0.2 in assay [3] (384-well format, cutoff for positive-scoring molecules 3-fold increase, read-out: AK-based Prestwick Library Screening Results, K. pneumoniae (increase in extracellular AK activity)); 1 in assay [4] (384-well format, cutoff for positive-scoring molecules 3-fold increase, read-out: AK-based Prestwick Library Screening Results, A. baumannii (increase in extracellular AK activity)); 0.8 in assay [5] (384-well format, cutoff for positive-scoring molecules 3-fold increase, read-out: AK-based Prestwick Library Screening Results, P. aeruginosa (increase in extracellular AK activity)); 1.5 in assay [6] (384-well format, cutoff for positive-scoring molecules 3-fold increase, read-out: AK-based Prestwick Library Screening Results, E. cloacae (increase in extracellular AK activity)). In addition, in assay [7] (384-well format, cutoff for positive-scoring molecules 3-fold increase, read-out: AK-based Prestwick Library Screening Results, E. coli (increase in extracellular AK activity)), the fold induction at 50 µM stood at 0.7.

As for `CN[C@@H]1[C@@H](O)[C@@H](O[C@@H]2[C@@H](O)[C@H](O[C@H]3OC(CN)=CC[C@H]3N)[C@@H](N)C[C@H]2N)OC[C@]1(C)O` [Sisomicin sulfate], the fold induction at 50 µM in assay [1] (planktonic E. faecium, cutoff for positive-scoring molecules 3-fold increase, read-out: AK-based Prestwick Library Screening Results, E. faecium (increase in extracellular AK activity)) was determined as 0.9; in assay [2] (planktonic S. aureus, cutoff for positive-scoring molecules 3-fold increase, read-out: AK-based Prestwick Library Screening Results, S. aureus (increase in extracellular AK activity)), 0.6; in assay [3] (planktonic K. pneumoniae, cutoff for positive-scoring molecules 3-fold increase, read-out: AK-based Prestwick Library Screening Results, K. pneumoniae (increase in extracellular AK activity)), 0.6; in assay [4] (planktonic A. baumannii, cutoff for positive-scoring molecules 3-fold increase, read-out: AK-based Prestwick Library Screening Results, A. baumannii (increase in extracellular AK activity)) it was 0.9; in assay [5] (planktonic P. aeruginosa, cutoff for positive-scoring molecules 3-fold increase, read-out: AK-based Prestwick Library Screening Results, P. aeruginosa (increase in extracellular AK activity)), 0.9; in assay [6] (planktonic E. cloacae, cutoff for positive-scoring molecules 3-fold increase, read-out: AK-based Prestwick Library Screening Results, E. cloacae (increase in extracellular AK activity)) it was 1. In addition, the fold induction at 50 µM in assay [7] (planktonic E. coli, cutoff for positive-scoring molecules 3-fold increase, read-out: AK-based Prestwick Library Screening Results, E. coli (increase in extracellular AK activity)) amounted to 0.8.

`CNC(=O)Oc1ccc2c(c1)[C@]1(C)CCN(C)[C@@H]1N2C.CNC(=O)Oc1ccc2c(c1)[C@]1(C)CCN(C)[C@@H]1N2C.O=S(=O)(O)O` [Eserine sulfate, physostigmine sulfate]: in assay [1] (planktonic E. faecium, […]), the “AK-based Prestwick Library Screening Results, E. faecium (increase in extracellular AK activity)” value came to 0.9. The “AK-based Prestwick Library Screening Results, S. aureus (increase in extracellular AK activity)” value in assay [2] (planktonic S. aureus, […]) was 0.4. For the same compound, the “AK-based Prestwick Library Screening Results, K. pneumoniae (increase in extracellular AK activity)” value in assay [3] (planktonic K. pneumoniae, […]) is 0.5. For the same compound, the “AK-based Prestwick Library Screening Results, A. baumannii (increase in extracellular AK activity)” value in assay [4] (planktonic A. baumannii, […]) came to 0.5. Moreover, the “AK-based Prestwick Library Screening Results, P. aeruginosa (increase in extracellular AK activity)” value in assay [5] (planktonic P. aeruginosa, […]) was 0.6. Besides, the “AK-based Prestwick Library Screening Results, E. cloacae (increase in extracellular AK activity)” value in assay [6] (planktonic E. cloacae, […]) is recorded as 0.7. Further, the “AK-based Prestwick Library Screening Results, E. coli (increase in extracellular AK activity)” value in assay [7] (planktonic E. coli, […]) was 0.7.
